# Columns and labels:
# COX-I = biological target: T1, COX-I (Homo sapiens, UniProt P23219); assay: Whole blood assay for COX-I (TXB2 production); assay type: cell-based; settings: 1 hr at 37° C.
# T1 construct: Fresh blood was collected by syringe without anticoagulants from volunteers with consent; from tissue; host or cells: fresh human whole blood from volunteers, no anticoagulant, left to clot
# Description: [B] Inhibiting Activity Against COX-I and COX-II (Whole Blood Assay): (i) Test Method: Whole Blood Assay for COX-I
# Fresh blood was collected by syringe without anticoagulants from volunteers with consent. The subjects had no apparent inflammatory conditions and had not taken any medication for at least 7 days prior to blood collection.
# 500 μl aliquots of human whole blood were immediately incubated with 2 μl of either dimethyl sulfoxide vehicle or a test compound at final concentrations for 1 hr at 37° C. to allow the blood to clot. Appropriate treatments (no incubation) were used as blanks. At the end of the incubation, 5 μl of 250 mM Indomethacin was added to stop the reaction. The blood was centrifuged at 6000×g for 5 min at 4° C. to obtain serum. A 100 μl aliquot of serum was mixed with 400 μl methanol for protein precipitation. The supernatant was obtained by centrifuging at 6000×g for 5 min at 4° C. and was assayed for TXB2 using an enzyme immunoassay kit according to the manufacturer's procedure. For a test compound, the results were expressed as percent inhibition of thromboxane B2(TXB2) production relative to control incubations containing dimethyl sulfoxide vehicle.
# The data were analyzed by that a test compound at the indicated concentrations was changed log value and was applied simple linear regression. IC50 value was calculated by least squares method.
# COX-II = biological target: T2, COX-II (Homo sapiens, UniProt P35354); assay: Whole blood assay for COX-II (LPS-induced PGE2 production); assay type: cell-based; settings: lipopolysaccharide 24 hrs at 37° C.
# T2 construct: lipopolysaccharide for 24 hrs at 37° C. for induction of COX-II; from tissue; host or cells: fresh heparinized human whole blood from volunteers, stimulated with LPS for 24 hrs
# T2 sequence (P35354 18-604): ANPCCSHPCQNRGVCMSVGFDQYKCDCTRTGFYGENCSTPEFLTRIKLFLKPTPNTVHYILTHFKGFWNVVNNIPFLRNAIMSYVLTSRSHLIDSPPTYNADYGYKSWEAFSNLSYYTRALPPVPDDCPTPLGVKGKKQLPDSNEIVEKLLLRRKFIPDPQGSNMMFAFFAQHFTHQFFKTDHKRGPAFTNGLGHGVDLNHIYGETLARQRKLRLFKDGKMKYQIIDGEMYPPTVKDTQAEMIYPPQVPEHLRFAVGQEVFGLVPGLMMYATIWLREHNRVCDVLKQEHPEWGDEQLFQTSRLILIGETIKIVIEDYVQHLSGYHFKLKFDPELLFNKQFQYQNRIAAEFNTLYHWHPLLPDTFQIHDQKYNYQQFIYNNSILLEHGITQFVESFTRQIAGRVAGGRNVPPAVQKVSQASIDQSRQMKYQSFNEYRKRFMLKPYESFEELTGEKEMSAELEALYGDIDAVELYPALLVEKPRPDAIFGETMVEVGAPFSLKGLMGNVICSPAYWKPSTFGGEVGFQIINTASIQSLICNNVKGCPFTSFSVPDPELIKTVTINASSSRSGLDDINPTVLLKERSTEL
# Description: Whole Blood Assay for COX-II
# Fresh blood was collected in heparinized tubes by syringe from volunteers with consent. The subjects had no apparent inflammatory conditions and had not taken any medication for at least 7 days prior to blood collection.
# 500 μl aliquots of human whole blood were incubated with either 2 μl dimethyl sulfoxide vehicle or 2 μl of a test compound at final concentrations for 15 min at 37° C. This was followed by incubation of the blood with […] of 5 mg/ml lipopolysaccharide for 24 hrs at 37° C. for induction of COX-II. Appropriate PBS treatments (no LPS) were used as blanks. At the end of the incubation, the blood was centrifuged at 6000×g for 5 min at 4° C. to obtain plasma. A 100 μl aliquot of plasma was mixed with 400 μl methanol for protein precipitation. The supernatant was obtained by centrifuging at 6000×g for 5 min at 4° C. and was assayed for prostaglandin E2 (PGE2) using a radioimmunoassay kit after conversion of PGE2 to its methyl oximate derivative according to the manufacturer's procedure.
# For a test compound, the results were expressed as percent inhibition of […] production relative to control incubations containing dimethyl sulfoxide vehicle. The data were analyzed by that a test compound at the indicated concentrations was changed log value and was applied simple linear regression. IC50 value was calculated by least squares method.
# [1] = tested on: adjuvant arthritis in rats; assay: Analgesic activity: effect on adjuvant arthritis in rats (Randall-Selitto pain threshold); assay type: in vivo, Lewis rats; settings: dose 3.2 mg/kg; ratio of threshold pressure of treated vs non-treated arthritic rats, 2 hrs after administration; ratio of 1.5 = effective dose
# T1 sequence (P23219 24-599): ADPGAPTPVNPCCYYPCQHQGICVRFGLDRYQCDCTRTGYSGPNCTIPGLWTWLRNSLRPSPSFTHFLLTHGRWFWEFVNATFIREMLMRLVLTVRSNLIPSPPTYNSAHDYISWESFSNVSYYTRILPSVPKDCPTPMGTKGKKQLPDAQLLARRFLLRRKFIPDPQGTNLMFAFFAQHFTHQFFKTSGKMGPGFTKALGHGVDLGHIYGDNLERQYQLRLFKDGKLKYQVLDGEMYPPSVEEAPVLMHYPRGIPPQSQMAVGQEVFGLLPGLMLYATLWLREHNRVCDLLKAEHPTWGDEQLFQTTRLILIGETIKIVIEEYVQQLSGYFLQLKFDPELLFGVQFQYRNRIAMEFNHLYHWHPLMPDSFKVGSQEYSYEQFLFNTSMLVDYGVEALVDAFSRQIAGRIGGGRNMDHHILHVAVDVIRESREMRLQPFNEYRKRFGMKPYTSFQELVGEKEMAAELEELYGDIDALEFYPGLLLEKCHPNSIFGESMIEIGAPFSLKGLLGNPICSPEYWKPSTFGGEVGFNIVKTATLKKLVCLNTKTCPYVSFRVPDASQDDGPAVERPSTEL
IC50 (COX-I) [µM],melting point [°C],IC50 (COX-II) [µM],SMILES,The coefficient of analgesic [1]
< 0.01,160 to 161,≥ 0.1,"COc1ccc(-c2nc(C(F)F)cn2-c2ccc(C#N)cc2)cn1 [Example 40, 1-(4-Cyanophenyl)-4-difluoromethyl-2-(2-methoxy-5-pyridinyl)-1H-imidazole]",>1.5
< 0.01,146 to 148,≥ 0.1,"COc1ccc(-c2nc(C(F)(F)F)cn2-c2ccc(C#N)cc2)cc1 [Example 24, 1-(4-Cyanophenyl)-2-(4-methoxyphenyl)-4-trifluoromethyl-1H-imidazole]",>1.5
< 0.01,90 to 92,≥ 0.1,"COc1ccc(-n2cc(C(F)(F)F)nc2-c2ccc(OC)nc2)cc1 [Example 3-2, 1-(4-Methoxyphenyl)-2-(2-methoxy-5-pyridinyl)-4-trifluoromethyl-1H-imidazole]",>1.5
